In PubChem BioAssay (NCI):
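Results reflect a 48-hour exposure of cells in 96-well plates to compound at five concentrations. GI50 = concentration required for 50% inhibition of growth. TGI denotes the concentration required for complete inhibition of growth.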

Experiments:
Test in all cases: growth of human tumour cells (NCI), 48 h
786-0 renal = test system: 786-0 renal
NCI-H522 lung = test system: NCI-H522 lung
MOLT-4 leukemia = test system: MOLT-4 leukemia
SK-MEL-2 melanoma = test system: SK-MEL-2 melanoma
OVCAR-4 ovarian = test system: OVCAR-4 ovarian
IGROV1 ovarian = test system: IGROV1 ovarian
SK-OV-3 ovarian = test system: SK-OV-3 ovarian
HT29 colon = test system: HT29 colon
MCF7 breast = test system: MCF7 breast
UO-31 renal = test system: UO-31 renal
SW-620 colon = test system: SW-620 colon
RPMI-8226 leukemia = test system: RPMI-8226 leukemia
HCT-116 colon = test system: HCT-116 colon
SF-539 CNS = test system: SF-539 CNS
NCI-H23 lung = test system: NCI-H23 lung
OVCAR-3 ovarian = test system: OVCAR-3 ovarian
EKVX NSCLC = test system: EKVX NSCLC
MDA-MB-435 = test system: MDA-MB-435
SK-MEL-5 melanoma = test system: SK-MEL-5 melanoma
NCI-H460 lung = test system: NCI-H460 lung
HOP-92 NSCLC = test system: HOP-92 NSCLC
HOP-62 NSCLC = test system: HOP-62 NSCLC
MALME-3M melanoma = test system: MALME-3M melanoma
UACC-62 melanoma = test system: UACC-62 melanoma
SN12C renal = test system: SN12C renal
M14 melanoma = test system: M14 melanoma
U251 CNS = test system: U251 CNS
MDA-MB-231 breast = test system: MDA-MB-231 breast
CAKI-1 renal = test system: CAKI-1 renal
TK-10 renal = test system: TK-10 renal
HL-60(TB) leukemia = test system: HL-60(TB) leukemia
NCI/ADR-RES ovarian = test system: NCI/ADR-RES ovarian
CCRF-CEM leukemia = test system: CCRF-CEM leukemia
LOX IMVI melanoma = test system: LOX IMVI melanoma
SF-295 CNS = test system: SF-295 CNS
A498 renal = test system: A498 renal
SR leukemia = test system: SR leukemia
HCT-15 colon = test system: HCT-15 colon
OVCAR-8 ovarian = test system: OVCAR-8 ovarian
SNB-75 CNS = test system: SNB-75 CNS
A549 NSCLC = test system: A549 NSCLC
T-47D breast = test system: T-47D breast
PC-3 prostate = test system: PC-3 prostate
SNB-19 CNS = test system: SNB-19 CNS
K-562 leukemia = test system: K-562 leukemia
UACC-257 melanoma = test system: UACC-257 melanoma
BT-549 breast = test system: BT-549 breast
OVCAR-5 ovarian = test system: OVCAR-5 ovarian
DU-145 prostate = test system: DU-145 prostate
COLO 205 colon = test system: COLO 205 colon
NCI-H226 lung = test system: NCI-H226 lung

Structure (SMILES): O=C1Nc2ccccc2/C1=C/C(=O)c1ccc(N2CCCC2)cc1
- GI50 (786-0 renal): 2.84 µM
- TGI (786-0 renal): > 100 µM
- GI50 (NCI-H522 lung): 2.28 µM
- TGI (NCI-H522 lung): > 100 µM
- GI50 (MOLT-4 leukemia): 2.02 µM
- GI50 (SK-MEL-2 melanoma): 3.87 µM
- TGI (SK-MEL-2 melanoma): > 100 µM
- GI50 (OVCAR-4 ovarian): 3.1 µM
- TGI (OVCAR-4 ovarian): > 100 µM
- GI50 (IGROV1 ovarian): 1.71 µM
- TGI (IGROV1 ovarian): 9.07 µM
- GI50 (SK-OV-3 ovarian): 3.4 µM
- TGI (SK-OV-3 ovarian): > 100 µM
- GI50 (HT29 colon): 1.2 µM
- GI50 (MCF7 breast): 2.05 µM
- TGI (MCF7 breast): > 100 µM
- GI50 (UO-31 renal): 2.14 µM
- TGI (UO-31 renal): > 100 µM
- GI50 (SW-620 colon): 0.339 µM
- TGI (SW-620 colon): 3.01 µM
- GI50 (RPMI-8226 leukemia): 1.98 µM
- TGI (RPMI-8226 leukemia): 5.31 µM
- GI50 (HCT-116 colon): 1.56 µM
- TGI (HCT-116 colon): 4.24 µM
- GI50 (SF-539 CNS): 2.11 µM
- TGI (SF-539 CNS): 4.75 µM
- GI50 (NCI-H23 lung): 5.2 µM
- TGI (NCI-H23 lung): > 100 µM
- GI50 (OVCAR-3 ovarian): 1.79 µM
- TGI (OVCAR-3 ovarian): 4.83 µM
- GI50 (EKVX NSCLC): 6.09 µM
- TGI (EKVX NSCLC): > 100 µM
- GI50 (MDA-MB-435): 1.25 µM
- TGI (MDA-MB-435): > 100 µM
- GI50 (SK-MEL-5 melanoma): 2.96 µM
- TGI (SK-MEL-5 melanoma): > 100 µM
- GI50 (NCI-H460 lung): 2.86 µM
- TGI (NCI-H460 lung): 8.17 µM
- GI50 (HOP-92 NSCLC): 1.75 µM
- TGI (HOP-92 NSCLC): 7.11 µM
- GI50 (HOP-62 NSCLC): 2.47 µM
- TGI (HOP-62 NSCLC): > 100 µM
- GI50 (MALME-3M melanoma): 2.84 µM
- TGI (MALME-3M melanoma): > 100 µM
- GI50 (UACC-62 melanoma): 2.78 µM
- TGI (UACC-62 melanoma): 9.81 µM
- GI50 (SN12C renal): 3.26 µM
- TGI (SN12C renal): > 100 µM
- GI50 (M14 melanoma): 2.28 µM
- TGI (M14 melanoma): 22.3 µM
- GI50 (U251 CNS): 2.89 µM
- TGI (U251 CNS): > 100 µM
- GI50 (MDA-MB-231 breast): 3.73 µM
- TGI (MDA-MB-231 breast): > 100 µM
- GI50 (CAKI-1 renal): 1.2 µM
- TGI (CAKI-1 renal): > 100 µM
- GI50 (TK-10 renal): 3.24 µM
- TGI (TK-10 renal): > 100 µM
- GI50 (HL-60(TB) leukemia): 1.24 µM
- TGI (HL-60(TB) leukemia): 4.56 µM
- GI50 (NCI/ADR-RES ovarian): 2.15 µM
- TGI (NCI/ADR-RES ovarian): 6.5 µM
- GI50 (CCRF-CEM leukemia): 2 µM
- TGI (CCRF-CEM leukemia): > 100 µM
- GI50 (LOX IMVI melanoma): 1.73 µM
- TGI (LOX IMVI melanoma): 3.56 µM
- GI50 (SF-295 CNS): 3.96 µM
- TGI (SF-295 CNS): > 100 µM
- GI50 (A498 renal): 3.45 µM
- TGI (A498 renal): > 100 µM
- GI50 (SR leukemia): 0.327 µM
- TGI (SR leukemia): 4.42 µM
- GI50 (HCT-15 colon): 0.686 µM
- TGI (HCT-15 colon): 9.7 µM
- GI50 (OVCAR-8 ovarian): 1.62 µM
- TGI (OVCAR-8 ovarian): 4.5 µM
- GI50 (SNB-75 CNS): 2.05 µM
- TGI (SNB-75 CNS): 6.91 µM
- GI50 (A549 NSCLC): 3.34 µM
- TGI (A549 NSCLC): > 100 µM
- GI50 (T-47D breast): 2.12 µM
- TGI (T-47D breast): 6.38 µM
- GI50 (PC-3 prostate): 1.77 µM
- TGI (PC-3 prostate): 8.04 µM
- GI50 (SNB-19 CNS): 3.8 µM
- TGI (SNB-19 CNS): > 100 µM
- GI50 (K-562 leukemia): 0.833 µM
- TGI (K-562 leukemia): > 100 µM
- GI50 (UACC-257 melanoma): 4.3 µM
- TGI (UACC-257 melanoma): > 100 µM
- GI50 (BT-549 breast): 3.27 µM
- TGI (BT-549 breast): > 100 µM
- GI50 (OVCAR-5 ovarian): 4.54 µM
- TGI (OVCAR-5 ovarian): > 100 µM
- GI50 (DU-145 prostate): 3.2 µM
- TGI (DU-145 prostate): > 100 µM
- GI50 (COLO 205 colon): 1.67 µM
- TGI (COLO 205 colon): 4.96 µM
- GI50 (NCI-H226 lung): 4.35 µM
- TGI (NCI-H226 lung): > 100 µM
